Test results published in patent publication US20080200454A1, “CARBON-LINKED TETRAHYDRO-PYRAZOLO-PYRIDINE MODULATORS OF CATHEPSIN S” (priority 2007, published 2008).
Counter-ions that a name gives are not always drawn. Like-named read-outs stand apart in the source and are kept apart here.

Target: Recombinant human cathepsin S (CatS) (Homo sapiens, UniProt P25774)
Assay: Recombinant human cathepsin S (CatS) inhibition assay, fluorogenic substrate Z-Valine-Valine-Arginine-AMC;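 note: Baculovirus-expressed CatS in pH 5.0 sodium acetate buffer with DTT and NaCl, fluorescence read each minute over 20 min, inhibition derived from rate slope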

Sequence of Recombinant human cathepsin S (CatS) (P25774 115-331): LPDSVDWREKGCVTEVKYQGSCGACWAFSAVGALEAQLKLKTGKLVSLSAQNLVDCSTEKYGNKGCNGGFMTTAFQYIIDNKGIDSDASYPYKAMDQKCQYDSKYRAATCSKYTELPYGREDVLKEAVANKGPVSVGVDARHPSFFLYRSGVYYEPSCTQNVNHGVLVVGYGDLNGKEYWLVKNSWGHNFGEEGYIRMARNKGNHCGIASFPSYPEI

Row | IC50 [nM] | SMILES | IC50 (CatS IC50) [nM]
1 | 940 | CS(=O)(=O)N1CCc2c(c(-c3ccc(Cl)c(CCCNS(=O)(=O)c4ccccc4)c3)nn2CCCN2CCC(N3CCCC3=O)CC2)C1 [Example 91, N-{3-[2-Chloro-5-(5-methanesulfonyl-1-{3-[4-(2-oxo-pyrrolidin-1-yl)-piperidin-1-yl]-propyl}-4,5,6,7-tetrahydro-1H-pyrazolo[4,3-c]pyridin-3-yl)-phenyl]-propyl}-benzenesulfonamide] | –
2 | 1040 | Cc1ccc(S(=O)(=O)NCCCc2cc(-c3nn(CCCN4CCC(N5CCCC5=O)CC4)c4c3CN(S(C)(=O)=O)CC4)ccc2Cl)cc1 [Example 92, N-{3-[2-Chloro-5-(5-methanesulfonyl-1-{3-[4-(2-oxo-pyrrolidin-1-yl)-piperidin-1-yl]-propyl}-4,5,6,7-tetrahydro-1H-pyrazolo[4,3-c]pyridin-3-yl)-phenyl]-propyl}-4-methyl-benzenesulfonamide] | –
3 | 1100 | Cc1ccccc1S(=O)(=O)NCCCc1cc(-c2nn(CCCN3CCC(N4CCCC4=O)CC3)c3c2CN(S(C)(=O)=O)CC3)ccc1Cl [Example 94, N-{3-[2-Chloro-5-(5-methanesulfonyl-1-{3-[4-(2-oxo-pyrrolidin-1-yl)-piperidin-1-yl]-propyl}-4,5,6,7-tetrahydro-1H-pyrazolo[4,3-c]pyridin-3-yl)-phenyl]-propyl}-2-methyl-benzenesulfonamide] | –
4 | 1150 | CS(=O)(=O)N1CCc2c(c(-c3ccc(Cl)c(CCCNS(=O)(=O)c4ccccc4Cl)c3)nn2CCCN2CCC(N3CCCC3=O)CC2)C1 [Example 95, 2-Chloro-N-{3-[2-chloro-5-(5-methanesulfonyl-1-{3-[4-(2-oxo-pyrrolidin-1-yl)-piperidin-1-yl]-propyl}-4,5,6,7-tetrahydro-1H-pyrazolo[4,3-c]pyridin-3-yl)-phenyl]-propyl}-benzenesulfonamide] | –
5 | 1310 | Cc1cccc(S(=O)(=O)NCCCc2cc(-c3nn(CCCN4CCC(N5CCCC5=O)CC4)c4c3CN(S(C)(=O)=O)CC4)ccc2Cl)c1 [Example 97, N-{3-[2-Chloro-5-(5-methanesulfonyl-1-{3-[4-(2-oxo-pyrrolidin-1-yl)-piperidin-1-yl]-propyl}-4,5,6,7-tetrahydro-1H-pyrazolo[4,3-c]pyridin-3-yl)-phenyl]-propyl}-3-methyl-benzenesulfonamide] | –
6 | 2060 | CS(=O)(=O)N1CCc2c(c(-c3ccc(Cl)c(CCCN4CCCC4)c3)nn2CCCN2CCC(N3CCCC3=O)CC2)C1 [Example 101, 1-[1-(3-{3-[4-Chloro-3-(3-pyrrolidin-1-yl-propyl)-phenyl]-5-methanesulfonyl-4,5,6,7-tetrahydro-pyrazolo[4,3-c]pyridin-1-yl}-propyl)-piperidin-4-yl]-pyrrolidin-2-one] | –
7 | 840 | CS(=O)(=O)N1CCc2c(c(-c3ccc(Cl)c(CCCN4CCCCC4)c3)nn2CCCN2CCC(N3CCCC3=O)CC2)C1 [Example 102, 1-[1-(3-{3-[4-Chloro-3-(3-piperidin-1-yl-propyl)-phenyl]-5-methanesulfonyl-4,5,6,7-tetrahydro-pyrazolo[4,3-c]pyridin-1-yl}-propyl)-piperidin-4-yl]-pyrrolidin-2-one] | –
8 | 310 | CC1CCCN(CCCc2cc(-c3nn(CCCN4CCC(N5CCCC5=O)CC4)c4c3CN(S(C)(=O)=O)CC4)ccc2Cl)C1 (centres unmarked) [Example 103, 1-{1-[3-(3-{4-Chloro-3-[3-(3-methyl-piperidin-1-yl)-propyl]-phenyl}-5-methanesulfonyl-4,5,6,7-tetrahydro-pyrazolo[4,3-c]pyridin-1-yl)-propyl]-piperidin-4-yl}-pyrrolidin-2-one] | –
9 | 1430 | CS(=O)(=O)N1CCc2c(c(-c3ccc(Cl)c(CCCN4CCOCC4)c3)nn2CCCN2CCC(N3CCCC3=O)CC2)C1 [Example 105, 1-[1-(3-{3-[4-Chloro-3-(3-morpholin-4-yl-propyl)-phenyl]-5-methanesulfonyl-4,5,6,7-tetrahydro-pyrazolo[4,3-c]pyridin-1-yl}-propyl)-piperidin-4-yl]-pyrrolidin-2-one] | –
10 | 4420 | CN1CCN(CCCc2cc(-c3nn(CCCN4CCC(N5CCCC5=O)CC4)c4c3CN(S(C)(=O)=O)CC4)ccc2Cl)CC1 [Example 106, 1-{1-[3-(3-{4-Chloro-3-[3-(4-methyl-piperazin-1-yl)-propyl]-phenyl}-5-methanesulfonyl-4,5,6,7-tetrahydro-pyrazolo[4,3-c]pyridin-1-yl)-propyl]-piperidin-4-yl}-pyrrolidin-2-one] | –
11 | 500 | CS(=O)(=O)N1CCc2c(c(-c3ccc(Cl)c(CCCN4CCCCCC4)c3)nn2CCCN2CCC(N3CCCC3=O)CC2)C1 [Example 107, 1-[1-(3-{3-[3-(3-Azepan-1-yl-propyl)-4-chloro-phenyl]-5-methanesulfonyl-4,5,6,7-tetrahydro-pyrazolo[4,3-c]pyridin-1-yl}-propyl)-piperidin-4-yl]-pyrrolidin-2-one] | –
12 | 660 | CS(=O)(=O)N1CCc2c(c(-c3ccc(Cl)c(CCCNC4CCCC4)c3)nn2CCCN2CCC(N3CCCC3=O)CC2)C1 [Example 108, 1-[1-(3-{3-[4-Chloro-3-(3-cyclopentylamino-propyl)-phenyl]-5-methanesulfonyl-4,5,6,7-tetrahydro-pyrazolo[4,3-c]pyridin-1-yl}-propyl)-piperidin-4-yl]-pyrrolidin-2-one] | –
13 | 2270 | CS(=O)(=O)N1CCc2c(c(-c3ccc(Cl)c(CCCCN4CCCC4)c3)nn2CCCN2CCC(N3CCCC3=O)CC2)C1 [Example 109, 1-[1-(3-{3-[4-Chloro-3-(4-pyrrolidin-1-yl-butyl)-phenyl]-5-methanesulfonyl-4,5,6,7-tetrahydro-pyrazolo[4,3-c]pyridin-1-yl}-propyl)-piperidin-4-yl]-pyrrolidin-2-one] | –

Continued, compound first:

Row | SMILES | IC50 [nM] | IC50 (CatS IC50) [nM]
14 | CC(=O)NCCCc1cc(-c2nn(CCCN3CCOCC3)c3c2CN(S(C)(=O)=O)CC3)ccc1Cl [Example 87, N-(3-{2-Chloro-5-[5-methanesulfonyl-1-(3-morpholin-4-yl-propyl)-4,5,6,7-tetrahydro-1H-pyrazolo[4,3-c]pyridin-3-yl]-phenyl}-propyl)-acetamide] | 11400 | –
15 | CS(=O)(=O)N1CCc2c(c(-c3ccc(Cl)c(CCCNS(=O)(=O)c4ccccc4C(=O)O)c3)nn2CCCN2CCC(N3CCCC3=O)CC2)C1 [Example 88, 2-{3-[2-Chloro-5-(5-methanesulfonyl-1-{3-[4-(2-oxo-pyrrolidin-1-yl)-piperidin-1-yl]-propyl}-4,5,6,7-tetrahydro-1H-pyrazolo[4,3-c]pyridin-3-yl)-phenyl]-propylsulfamoyl}-benzoic acid, trifluoroacetic acid salt] | 520 | –
16 | CS(=O)(=O)N1CCc2c(c(-c3ccc(Cl)c(CCCNS(=O)(=O)c4ccccc4[N+](=O)[O-])c3)nn2CCCN2CCC(N3CCCC3=O)CC2)C1 [Example 89, N-{3-[2-Chloro-5-(5-methanesulfonyl-1-{3-[4-(2-oxo-pyrrolidin-1-yl)-piperidin-1-yl]-propyl}-4,5,6,7-tetrahydro-1H-pyrazolo[4,3-c]pyridin-3-yl)-phenyl]-propyl}-2-nitro-benzenesulfonamide] | 290 | –
17 | CS(=O)(=O)N1CCc2c(c(-c3ccc(Cl)c(CCCNS(=O)(=O)c4cccc(Cl)c4)c3)nn2CCCN2CCC(N3CCCC3=O)CC2)C1 [Example 90, 3-Chloro-N-{3-[2-chloro-5-(5-methanesulfonyl-1-{3-[4-(2-oxo-pyrrolidin-1-yl)-piperidin-1-yl]-propyl}-4,5,6,7-tetrahydro-1H-pyrazolo[4,3-c]pyridin-3-yl)-phenyl]-propyl}-benzenesulfonamide] | 420 | –
18 | COc1cccc(S(=O)(=O)NCCCc2cc(-c3nn(CCCN4CCC(N5CCCC5=O)CC4)c4c3CN(S(C)(=O)=O)CC4)ccc2Cl)c1 [Example 93, N-{3-[2-Chloro-5-(5-methanesulfonyl-1-{3-[4-(2-oxo-pyrrolidin-1-yl)-piperidin-1-yl]-propyl}-4,5,6,7-tetrahydro-1H-pyrazolo[4,3-c]pyridin-3-yl)-phenyl]-propyl}-3-methoxy-benzenesulfonamide] | 1050 | –
19 | CS(=O)(=O)N1CCc2c(c(-c3ccc(Cl)c(CCCNS(=O)(=O)c4cccc([N+](=O)[O-])c4)c3)nn2CCCN2CCC(N3CCCC3=O)CC2)C1 [Example 96, N-{3-[2-Chloro-5-(5-methanesulfonyl-1-{3-[4-(2-oxo-pyrrolidin-1-yl)-piperidin-1-yl]-propyl}-4,5,6,7-tetrahydro-1H-pyrazolo[4,3-c]pyridin-3-yl)-phenyl]-propyl}-3-nitro-benzenesulfonamide] | 1200 | –
20 | CS(=O)(=O)N1CCc2c(c(-c3ccc(Cl)c(CCCNS(=O)(=O)c4cccc(C#N)c4)c3)nn2CCCN2CCC(N3CCCC3=O)CC2)C1 [Example 98, N-{3-[2-Chloro-5-(5-methanesulfonyl-1-{3-[4-(2-oxo-pyrrolidin-1-yl)-piperidin-1-yl]-propyl}-4,5,6,7-tetrahydro-1H-pyrazolo[4,3-c]pyridin-3-yl)-phenyl]-propyl}-3-cyano-benzenesulfonamide] | 1410 | –
21 | CS(=O)(=O)c1cccc(S(=O)(=O)NCCCc2cc(-c3nn(CCCN4CCC(N5CCCC5=O)CC4)c4c3CN(S(C)(=O)=O)CC4)ccc2Cl)c1 [Example 99, N-{3-[2-Chloro-5-(5-methanesulfonyl-1-{3-[4-(2-oxo-pyrrolidin-1-yl)-piperidin-1-yl]-propyl}-4,5,6,7-tetrahydro-1H-pyrazolo[4,3-c]pyridin-3-yl)-phenyl]-propyl}-3-methanesulfonyl-benzenesulfonamide] | 2450 | –
22 | CS(=O)(=O)c1ccccc1S(=O)(=O)NCCCc1cc(-c2nn(CCCN3CCC(N4CCCC4=O)CC3)c3c2CN(S(C)(=O)=O)CC3)ccc1Cl [Example 100, N-{3-[2-Chloro-5-(5-methanesulfonyl-1-{3-[4-(2-oxo-pyrrolidin-1-yl)-piperidin-1-yl]-propyl}-4,5,6,7-tetrahydro-1H-pyrazolo[4,3-c]pyridin-3-yl)-phenyl]-propyl}-2-methanesulfonyl-benzenesulfonamide] | 2500 | –
23 | CS(=O)(=O)N1CCc2c(c(-c3ccc(Cl)c(CCCN4CCC(F)(F)CC4)c3)nn2CCCN2CCC(N3CCCC3=O)CC2)C1 [Example 104, 1-{1-[3-(3-{4-Chloro-3-[3-(4,4-difluoro-piperidin-1-yl)-propyl]-phenyl}-5-methanesulfonyl-4,5,6,7-tetrahydro-pyrazolo[4,3-c]pyridin-1-yl)-propyl]-piperidin-4-yl}-pyrrolidin-2-one] | – | 930
